Data taken from patent publication US10183919B2 (priority 2014, dated 2019).
Counter-ions that a name gives are not always drawn.

The molecules below were run against T1, Human MOR (Homo sapiens, UniProt P35372) (assay: cell-based). Conditions: not given.
T1 construct: expressed in transfected cells; host or cells: HEK-293T
T1 sequence (P35372 whole entry): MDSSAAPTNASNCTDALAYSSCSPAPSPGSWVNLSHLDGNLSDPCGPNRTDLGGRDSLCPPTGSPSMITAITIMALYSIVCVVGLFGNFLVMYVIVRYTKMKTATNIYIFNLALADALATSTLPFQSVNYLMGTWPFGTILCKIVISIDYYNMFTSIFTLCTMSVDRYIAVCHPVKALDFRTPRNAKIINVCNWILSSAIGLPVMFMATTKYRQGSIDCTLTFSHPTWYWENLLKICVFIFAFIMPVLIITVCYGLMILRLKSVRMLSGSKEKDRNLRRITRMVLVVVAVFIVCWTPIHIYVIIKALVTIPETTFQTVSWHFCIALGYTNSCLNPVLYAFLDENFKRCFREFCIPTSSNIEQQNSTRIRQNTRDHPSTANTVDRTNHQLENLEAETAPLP
Excerpt: (§1) Transfection. Human or mouse MOR cDNA was transfected alongside GαoB with RLuc8 inserted at position 91 (GαoB-RLuc8), Gβ1 (β1), and Gγ2 fused to the full-length mVenus at its N terminus (mVenus-γ2) into HEK-293T cells (5×10^6 cells/plate) in 10-cm dishes using PEI (Polysciences Inc.; Warrington, Pa.) in a 1:1 ratio diluted in Opti-MEM (Life Technologies Corp.; Grand Island, N.Y.) to assay for G protein activation as described previously (Rives, M.-L. et al. J. Biol. Chem. 2012, 287, 27050-4; Negri, A.; Rives, M.-L.; Caspers, M. J. et al. J. Chem. Inf. Model. 2013, 53, 521-526). Cells were maintained in the Dulbecco's Modified Eagle Medium (high glucose #11965; Life Technologies) supplemented with 10% FBS (Premium Select, Atlanta Biologicals; Atlanta, Ga.) and 100 U/mL penicillin and 100 μg/mL streptomycin (#15140, Life Technologies). After 24 hours the media was changed, and the experiment was performed 24 hours later (48 hours after transfection).
(§2) BRET. Transfected cells were dissociated and resuspended in phosphate-buffered saline (PBS). Approximately 200,000 cells/well were added to a black-framed, white well 96-well plate (#60050; Perkin Elmer; Waltham, Mass.). The microplate was centrifuged and the cells were resuspended in PBS. Then 5 μM of the luciferase substrate coelenterazine H was added to each well for 5 minutes. Following coelenterazine H addition, ligands were added and the BRET signal was measured at 5 minutes on a PHERAstar FS plate reader. Quantification of the BRET signal required calculating the ratio of the light emitted by the energy acceptor, mVenus (510-540 nm), over the light emitted by the energy donor, RLuc8 (485 nm). […] Dose response curves were fit using three-parameter logistics equation in GraphPad Prism 6.
`CCCCCNC1c2ccccc2N(C)S(=O)(=O)c2ccccc21` (centres unmarked) [compound 8, 6-Methyl-11(pentylamino)-6,11-dihydrodibenzo[c,f][1,2]thiazepine 5,5-dioxide] showed an EC50 of less than 10 µM.
With `CCOC(=O)CCCCCCNC1c2ccccc2N(C)S(=O)(=O)c2ccccc21` (centres unmarked) [compound 9, Ethyl 7-((6-methyl-5,5-dioxido-6,11-dihydrodibenzo[c,f][1,2]thiazepin-11-yl)amino)heptanoate] the EC50 was less than 10 µM.
In the case of `CCOC(=O)CCCCNC1c2ccccc2N(C)S(=O)(=O)c2cc(Cl)ccc21` (centres unmarked) [compound 17, Ethyl 5-((3-chloro-6-methyl-5,5-dioxido-6,11-dihydrodibenzo[c,f][1,2]thiazepin-11-yl)amino)pentanoate], the EC50 is reported as less than 10 µM.
With `CN1c2ccccc2C(NCCCCC(=O)O)c2ccc(Cl)cc2S1(=O)=O` (centres unmarked) [compound 18, 5-((3-Chloro-6-methyl-5,5-dioxido-6,11-dihydrodibenzo[c,f][1,2]thiazepin-11-yl)amino)pentanoic acid] the EC50 was less than 10 µM.
For `CCCCCNC1c2ccccc2N(C)S(=O)(=O)c2cc(Cl)ccc21` (centres unmarked) [compound 19, 3-Chloro-6-methyl-11-(pentylamino)-6,11-dihydrodibenzo [c,f][1,2]thiazepine 5,5-dioxide], the EC50 was less than 10 µM.
In the case of `CCOC(=O)CCCCCCNC1c2ccccc2S(=O)(=O)N(C)c2c(OC)cccc21` (centres unmarked) [compound 51, Ethyl 7-((7-methoxy-6-methyl-5,5-dioxido-6,11-dihydrodibenzo[c,f][1,2]thiazepin-11-yl)amino)heptanoate], the EC50 is reported as less than 10 µM.
Work on `CN1c2ccccc2C(NCCCCCCC(N)=O)c2ccc(Cl)cc2S1(=O)=O` (centres unmarked) [compound 52] yielded an EC50 of less than 10 µM.
Work on `COCCCNC1c2ccccc2N(C)S(=O)(=O)c2cc(Br)ccc21` (centres unmarked) [compound 53, 3-Bromo-11-((3-methoxypropyl)amino)-6-methyl-6,11-dihydrodibenzo[c,f] [1,2]thiazepine 5,5-dioxide] yielded an EC50 of 0.0741 ± 0.0179 µM.
`COCCCNC1c2ccccc2N(C)S(=O)(=O)c2cc(-c3ccccc3)ccc21` (centres unmarked) [compound 56, 11-((3-Methoxypropyl)amino)-6-methyl-3-phenyl-6,11-dihydrodibenzo[c,f][1,2]thiazepine 5,5-dioxide] showed an EC50 of less than 10 µM.
`CN1c2ccccc2C(NCCCCCCC(=O)NCCO)c2ccc(Cl)cc2S1(=O)=O` (centres unmarked) [compound 57, 7-((3-Chloro-6-methyl-5,5-dioxido-6,11-dihydrodibenzo [c,f][1,2]thiazepin-11-yl)amino)-N-(2-hydroxyethyl) heptanamide] was tested, and the EC50 was less than 10 µM.
For `CN1c2ccccc2C(NCCCCCCC2=NCCO2)c2ccc(Cl)cc2S1(=O)=O` (centres unmarked) [compound 58, 3-Chloro-11-((6-(4,5-dihydrooxazol-2-yl)hexyl)amino)-6-methyl-6,11-dihydrodibenzo[c,f][1,2]thiazepine 5,5-dioxide], the EC50 was less than 10 µM.
In the case of `COCCCNC1c2ccccc2N(C)S(=O)(=O)c2cc(OC(C)=O)ccc21` (centres unmarked) [compound 59, 11-((3-Methoxypropyl)amino)-6-methyl-5,5-dioxido-6,11-dihydrodibenzo[c,f][1,2]thiazepin-3-yl acetate], the EC50 is reported as less than 10 µM.
Molecule `COCCCNC1c2ccccc2N(C)S(=O)(=O)c2ccc(Cl)cc21` (centres unmarked) [compound 60] has an EC50 of less than 20 µM.
Work on `CCOC(=O)CCCCCCNC1c2ccccc2N(C)S(=O)(=O)c2ccc(Cl)cc21` (centres unmarked) [compound 61, Ethyl 7-((2-chloro-6-methyl-5,5-dioxido-6,11-dihydrodibenzo[c,f] [1,2]thiazepin-11-yl)amino)heptanoate] yielded an EC50 of less than 10 µM.
For `COCCCNC1c2ccccc2N(C)S(=O)(=O)c2cc(SC(C)C)ccc21` (centres unmarked) [compound 63, 3-(Isopropylthio)-11-((3-methoxypropyl)amino)-6-methyl-6,11-dihydrodibenzo[c,f][1,2]thiazepine 5,5-dioxide], the EC50 was less than 10 µM.
For `CCSc1ccc2c(c1)S(=O)(=O)N(C)c1ccccc1C2NCCCOC` (centres unmarked) [compound 64, 3-(Ethylthio)-11-((3-methoxypropyl)amino)-6-methyl-6,11-dihydrodibenzo[c,f][1,2]thiazepine 5,5-dioxide], the EC50 was less than 10 µM.
With `CCN1c2ccccc2C(NCCCOC)c2ccccc2S1(=O)=O` (centres unmarked) [compound 65, 6-Ethyl-11-((3-methoxpropyl)amino)-6,11-dihydrodibenzo[c,f][1,2]thiazepine 5,5-dioxide] the EC50 was greater than 20 µM.
Work on `CCOC(=O)CCCCCCNC1c2ccccc2N(CC)S(=O)(=O)c2ccccc21` (centres unmarked) [compound 66, Ethyl 7-((6-ethyl-5,5-dioxido-6,11-dihydrodibenzo[c,f][1,2]thiazepin-11-yl)amino)heptanoate] yielded an EC50 of less than 10 µM.
`COCCCNC1c2ccc(Cl)cc2N(C)S(=O)(=O)c2ccccc21` (centres unmarked) [compound 69, 8-Chloro-11-((3-methoxypropyl)amino)-6-methyl-6,11-dihydrodibenzo [c,f][1,2]thiazepine 5,5-dioxide] was tested, and the EC50 was less than 20 µM.
With `CCOC(=O)CCCCCCNC1c2ccc(Cl)cc2N(C)S(=O)(=O)c2ccccc21` (centres unmarked) [compound 70, Ethyl 7-((8chloro-6-methyl-5,5-dioxido-6,11-dihydrodibenzo[c,f][1,2]thiazepin-11-yl)amino)heptanoate] the EC50 was less than 10 µM.
For `COCCCNC1c2ccc(Br)cc2S(=O)(=O)N(C)c2ccsc21` (centres unmarked) [compound 72, 7-Bromo-10-((3-methoxypropyl)amino)-4-methyl-4,10-dihydrobenzo[f]thieno[3,2-c][1,2]thiazepine 5,5-dioxide], the EC50 was less than 10 µM.
`CCOCCCNC1c2ccc(Br)cc2S(=O)(=O)N(C)c2ccsc21` (centres unmarked) [compound 73, 7-Bromo-10-((3-ethoxypropyl)amino)-4-methyl-4,10-dihydrobenzo[f]thieno[3,2-c][1,2]thiazepine 5,5-dioxide] was tested, and the EC50 was less than 10 µM.
In the case of `CCOC(=O)CCCCCCNC1c2ccc(Br)cc2S(=O)(=O)N(C)c2ccsc21` (centres unmarked) [compound 74, Ethyl 7-((7-bromo-4-methyl-5,5-dioxido-4,10-dihydrobenzo[f]thieno[3,2-c][1,2]thiazepin-10-yl)amino)heptanoate], the EC50 is reported as less than 10 µM.
`CCOCCCNC1c2ccccc2N(C)S(=O)(=O)c2cc(I)ccc21` (centres unmarked) [compound 76, 11-((3-Ethoxypropyl)amino)-3-iodo-6-methyl-6,11-dihydrodibenzo [c,f][1,2]thiazepine 5,5-dioxide] was tested, and the EC50 was 0.145 µM.
Molecule `COCCCNC1c2ccc(Cl)cc2S(=O)(=O)N(C)c2ccsc21` (centres unmarked) [compound 77, 7-Chloro-10-((3-methoxypropyl)amino)-4-methyl-4,10-dihydrobenzo[f]thieno[3,2-c][1,2]thiazepine 5,5-dioxide] has an EC50 of less than 10 µM.
Work on `CCOCCCNC1c2ccc(Cl)cc2S(=O)(=O)N(C)c2ccsc21` (centres unmarked) [compound 78, 7-Chloro-10-((-ethoxypropyl)amino)-4-methyl-4,10-dihydrobenzo[f]thieno[3,2-c][1,2]thiazepine 5,5-dioxide] yielded an EC50 of less than 10 µM.
For `CCOC(=O)CCCCCCNC1c2ccc(Cl)cc2S(=O)(=O)N(C)c2ccsc21` (centres unmarked) [compound 79, Ethyl 7-((7-chloro-4-methyl-5,5-dioxido-4,10-dihydrobenzo[f]thieno[3,2-c][1,2]thiazepin-10-yl)amino)heptanoate], the EC50 was less than 10 µM.
Work on `CCOC(=O)CCCCCCNC1c2ccccc2N(C)S(=O)(=O)c2cc(Br)ccc21` (centres unmarked) [compound 81, Ethyl 7-((3-bromo-6-methyl-5,5-dioxido-6,11-dihydrodibenzo [c,f] [1,2]thiazepin-11-yl)amino)heptanoate] yielded an EC50 of 0.573 µM.
Molecule `CN1c2ccccc2C(NCCCCCCC(=O)O)c2ccc(Br)cc2S1(=O)=O` (centres unmarked) [compound 82, 7-((3-Bromo-6-methyl-5,5-dioxido-6,11-dihydrodibenzo[c,f][1,2]thiazepin-11-yl)amino)heptanoic acid hydrochloride salt] has an EC50 of 0.122 µM.
`CN1c2ccccc2C(NCCCO)c2ccc(Cl)cc2S1(=O)=O` (centres unmarked) [compound 83, 3-Chloro-11-((3-hydroxypropyl)amino)-6-methyl-6,11-dihydrodibenzo[c,f][1,2] iazepine 5,5-dioxide] was tested, and the EC50 was 1.81 µM.

Same assay, conditions: BRET G protein activation, HEK-293T; mean ± SEM of independent trials; read-out: EC50 Human MOR
`CCOC(=O)CCCCCCNC1c2ccccc2S(=O)(=O)N(C)c2c(O)cccc21` (centres unmarked) [compound 62] was tested, and the EC50 was greater than 20 µM.
`CCOCCCNC1c2ccccc2N(C)S(=O)(=O)c2cc(Br)ccc21` (centres unmarked) [compound 71, 3-Bromo-11-((3-ethoxypropyl)amino)-6-methyl-6,11-dihydrodibenzo [c,f][1,2]thiazepine 5,5-dioxide] gave an EC50 of 0.222 ± 0.078 µM.
With `COCCCNC1c2ccccc2N(C)S(=O)(=O)c2cc(OCc3ccccc3)ccc21` (centres unmarked) [compound 75, 3-(Benzyloxy)-11-((3-methoxypropyl)amino)-6-methyl-6,11-dihydrodibenzo[c,f][1,2]thiazepine 5,5-dioxide] the EC50 was greater than 20 µM.

These molecules were tested against T2, Mouse MOR (Mus musculus, UniProt P42866) (assay: BRET G protein activation assay, HEK-293T cells transfected with mouse MOR). Conditions: not given.
T2 construct: expressed in transfected cells; host or cells: HEK-293T
T2 sequence (P42866 whole entry): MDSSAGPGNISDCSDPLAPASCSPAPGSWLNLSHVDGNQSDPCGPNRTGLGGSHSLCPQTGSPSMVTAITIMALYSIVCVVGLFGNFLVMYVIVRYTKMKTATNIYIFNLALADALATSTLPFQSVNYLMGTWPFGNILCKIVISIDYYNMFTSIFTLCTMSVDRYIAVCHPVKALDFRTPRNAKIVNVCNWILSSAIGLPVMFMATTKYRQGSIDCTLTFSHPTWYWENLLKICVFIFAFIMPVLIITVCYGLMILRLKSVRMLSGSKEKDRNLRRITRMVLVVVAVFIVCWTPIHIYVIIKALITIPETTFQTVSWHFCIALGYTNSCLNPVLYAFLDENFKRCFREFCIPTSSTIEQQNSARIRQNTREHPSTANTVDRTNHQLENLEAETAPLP
Format: cell-based
Excerpt: as §1, §2
Molecule `CCOC(=O)CCCCCCNC1c2ccccc2N(C)S(=O)(=O)c2ccccc21` (centres unmarked) [compound 9, Ethyl 7-((6-methyl-5,5-dioxido-6,11-dihydrodibenzo[c,f][1,2]thiazepin-11-yl)amino)heptanoate] has an EC50 of less than 10 µM.
For `CCOC(=O)CCCCNC1c2ccccc2N(C)S(=O)(=O)c2cc(Cl)ccc21` (centres unmarked) [compound 17, Ethyl 5-((3-chloro-6-methyl-5,5-dioxido-6,11-dihydrodibenzo[c,f][1,2]thiazepin-11-yl)amino)pentanoate], the EC50 was less than 10 µM.
Work on `CN1c2ccccc2C(NCCCCC(=O)O)c2ccc(Cl)cc2S1(=O)=O` (centres unmarked) [compound 18, 5-((3-Chloro-6-methyl-5,5-dioxido-6,11-dihydrodibenzo[c,f][1,2]thiazepin-11-yl)amino)pentanoic acid] yielded an EC50 of less than 10 µM.

Same assay, conditions: BRET G protein activation, HEK-293T; mean ± SEM of independent trials; read-out: EC50 Mouse MOR
Work on `CCCCCNC1c2ccccc2N(C)S(=O)(=O)c2ccccc21` (centres unmarked) [compound 8, 6-Methyl-11(pentylamino)-6,11-dihydrodibenzo[c,f][1,2]thiazepine 5,5-dioxide] yielded an EC50 of less than 10 µM.
`CCCCCNC1c2ccccc2N(C)S(=O)(=O)c2cc(Cl)ccc21` (centres unmarked) [compound 19, 3-Chloro-6-methyl-11-(pentylamino)-6,11-dihydrodibenzo [c,f][1,2]thiazepine 5,5-dioxide] showed an EC50 of less than 10 µM.
